Measurements taken from PubChem BioAssay (NCI).
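Protocol summary: plate cells (96-well), add compound at 5 concentrations, incubate 48 h, interpolate endpoints linearly. TGI: concentration producing complete growth inhibition.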

What was measured:
Assay in all cases: inhibition of tumour cell growth, NCI panel, 48 h
HS 578T breast = tested on: HS 578T breast
SW-620 colon = tested on: SW-620 colon
SK-MEL-5 melanoma = tested on: SK-MEL-5 melanoma
A498 renal = tested on: A498 renal
LOX IMVI melanoma = tested on: LOX IMVI melanoma
U251 CNS = tested on: U251 CNS
DU-145 prostate = tested on: DU-145 prostate
HCT-116 colon = tested on: HCT-116 colon
HL-60(TB) leukemia = tested on: HL-60(TB) leukemia
BT-549 breast = tested on: BT-549 breast
CAKI-1 renal = tested on: CAKI-1 renal
SN12C renal = tested on: SN12C renal

| Structure (SMILES) | TGI (HS 578T breast) [µM] | TGI (SW-620 colon) [µM] | TGI (SK-MEL-5 melanoma) [µM] | TGI (A498 renal) [µM] | TGI (LOX IMVI melanoma) [µM] | TGI (U251 CNS) [µM] | TGI (DU-145 prostate) [µM] | TGI (HCT-116 colon) [µM] | TGI (HL-60(TB) leukemia) [µM] | TGI (BT-549 breast) [µM] | TGI (CAKI-1 renal) [µM] | TGI (SN12C renal) [µM] |
| --- | --- | --- | --- | --- | --- | --- | --- | --- | --- | --- | --- | --- |
| CC[C@@]1(O)C(=O)OCc2c1c(Cl)c1n(c2=O)Cc2cc3ccccc3nc2-1 | > 100 | > 100 | 5.42 | 8.45 | 4.01 | 11.5 | 8.63 | 8.76 | > 26.3 | > 47.7 | 16.4 | > 61.8 |
| CCOC(=O)CNC(=O)C(CSC(=O)N(O)c1ccc(Br)cc1)NC(=O)CCC(N)C(=O)OCC (stereo not drawn) | > 50 | > 50 | > 50 | > 50 | > 50 | > 50 | > 50 | > 50 | 0.00622 | > 50 | > 50 | > 50 |
| COc1ccc(NC=O)c(C(O)CCNC(C)=O)c1 (stereo not drawn) | > 100 | > 100 | > 100 | > 100 | > 100 | > 100 | > 100 | > 100 | > 100 | > 100 | > 100 | > 100 |
| CC(C)=CCC/C(C)=C/Cc1cc(/C=C/c2cc(O)c(CC=C(C)C)c(O)c2)cc(O)c1O | 26.8 | 14.5 | 5.88 | 20.6 | 7 | 5 | 26.6 | 11.9 | 2.79 | 13.3 | 16.9 | 3.95 |
| Oc1ccccc1C=Nc1ccc(Oc2ccc(Cl)cc2)c(Cl)c1 | 52.5 | > 100 | 50.9 | 33.7 | 41 | 50.5 | > 100 | 40.1 | 65.4 | 44.4 | 95.4 | 41.4 |
| Cc1ccc2c(ccc3c[n+]4ccccc4c(C)c32)c1 | 15.3 | 22.8 | 2.47 | > 100 | 27.8 | 12.1 | 26.6 | 27.2 | > 100 | 5.74 | 65.5 | 3.46 |
| CCN(CC)c1ccc(/C=C/C2=NN(c3cccc(S(=O)(=O)O)c3)C3(C2)C(Cl)C(=O)N3c2nc3ccccc3s2)cc1 (stereo not drawn) | > 90.2 | 53.4 | 20.9 | 24.8 | 9.12 | 15.5 | 25.2 | 24.1 | 4.01 | 22.7 | 8.26 | 29 |
| O=c1cc(-c2ccc(O)c(O)c2)oc2cc(OC3OC(CO)C(O)C(O)C3O)cc(O)c12 (stereo not drawn) | > 100 | > 100 | > 100 | > 100 | > 100 | > 100 | > 100 | > 100 | > 100 | > 100 | > 100 | > 100 |
| NC(=S)N/N=C/c1cc(CN2CCOCC2)c(N)cn1 | > 100 | > 100 | > 100 | > 100 | > 100 | > 100 | > 100 | > 100 | > 100 | > 100 | > 100 | > 100 |
